# Assay results published in patent US20100063026A1, “ANTIBACTERIAL QUINOLINE DERIVATIVES” (priority 2007, published 2010).
# Legend:
# [1] = tested on: Staphylococcus aureus (ATCC29213); test: Microtitre plate IC90 determination against non-mycobacterial strains: S. aureus; assay type: cell-based; settings: 90% inhibitory concentration for bacterial growth, 37° C., resazurin fluorescence; for IC90 STA 1 B29213: 24 hours; for IC90: Staphylococcus aureus, ATCC29213, 24 h, read-out: IC90 STA 1 B29213
# Procedure: (§1) The bacteria used in this study were grown overnight in flasks containing 100 ml Mueller-Hinton Broth (Becton Dickinson-cat. no. 275730) in sterile de-ionized water, with shaking, at 37° C. Stocks (0.5 ml/tube) were stored at -70° C. until use. Bacteria titrations were performed in microtiter plates to detect the TCID50, in which the TCID50 represents the dilution that gives rise to bacterial growth in 50% of inoculated cultures. In general, an inoculum level of approximately 100 TCID50 was used for susceptibility testing. […] Therefore resazurin (0.6 mg/ml) was added in a volume of 20 μl to all wells 3 hours after inoculation, and the plates were re-incubated overnight. A change in colour from blue to pink indicated the growth of bacteria.
# M. smegmatis ATCC607 = test: In-vitro anti-bacterial activity against strain M. smegmatis ATCC607; settings: for IC90: Mycolicibacterium smegmatis, ATCC607, 48 h, read-out: IC90 MSM 1 ATCC607, 90% inhibitory concentration for bacterial growth, 37° C., Alamar Blue fluorescence; for IC90 MSM 1 ATCC607: 90% inhibitory concentration for bacterial growth, 48 hours, 37° C., Alamar Blue fluorescence
# Procedure: Flat-bottom, sterile 96-well plastic microtiter plates were filled with 180 μl of sterile deionized water, supplemented with 0.25% BSA. Subsequently, stock solutions (7.8× final test concentration) of compounds were added in 45 μl volumes to a series of duplicate wells in column 2 so as to allow evaluation of their effects on bacterial growth. Serial five-fold dilutions (45 μl in 180 μl) were made directly in the microtiter plates from column 2 to 11 using a customised robot system (Zymark Corp., Hopkinton, Mass.). Pipette tips were changed after every 3 dilutions to minimize pipetting errors with high hydrophobic compounds. Untreated control samples with (column 1) and without (column 12) inoculum were included in each microtiter plate. Approximately 250 CFU per well of bacteria inoculum, in a volume of 100 μl in 2.8× Mueller-Hinton broth medium, was added to the rows A to H, except column 12. The same volume of broth medium without inoculum was added to column 12 in row A to H. The cultures were incubated at 37° C. for 48 hours in a humidified 5% CO2 atmosphere (incubator with open air valve and continuous ventilation). At the end of incubation, two days after inoculation, the bacterial growth was quantitated fluorometrically. Therefore Alamar Blue (10×) was added to all wells in a volume of 20 μl and plates were incubated for another 2 hours at 50° C.
# The fluorescence was read in a computer-controlled fluorometer (Cytofluor, Biosearch) at an excitation wavelength of 530 nm and an emission wavelength of 590 nm (gain 30). The percentage growth inhibition achieved by the compounds was calculated according to standard methods and expressed as IC90 (μg/ml) which defines the 90% inhibitory concentration for bacterial growth.
# [2] = tested on: Streptococcus pneumoniae (ATCC6305); test: Microtitre plate IC90 determination against non-mycobacterial strains: S. pneumoniae; assay type: cell-based; settings: 90% inhibitory concentration for bacterial growth, 37° C., resazurin fluorescence; for IC90 SPN 1 6305: 24 hours
# Procedure: as §1
Compound,IC90 STA 1 B29213 [1],IC90 (M. smegmatis ATCC607),IC90 [1],"IC90 ([2]; Streptococcus pneumoniae, ATCC6305, 24 h, read-out: IC90 SPN 1 6305)",IC90 SPN 1 6305 [2],IC90 MSM 1 ATCC607 (M. smegmatis ATCC607)
"COc1nc2ccc(Br)cc2cc1C(c1ccccc1)C(O)(CCCCNCCN(C)C)c1ccccc1 (single isomer, unassigned) [Compound 66]",1.8 µg/mL,–,–,–,–,–
"COc1nc2ccc(Br)cc2cc1C(c1ccccc1)C(O)(CCCCN1CCN(C(C)=O)CC1)c1ccccc1 (single isomer, unassigned) [Compound 3]",–,4.9 µg/mL,61.7 µg/mL,9.8 µg/mL,–,–
"COc1nc2ccc(Br)cc2cc1C(c1ccccc1)C(O)(CCCCCN1CCCN(C)CC1)c1ccc2ccccc2c1 (single isomer, unassigned) [Compound 54]",–,2.1 µg/mL,2.1 µg/mL,–,2.1 µg/mL,–
COc1nc2ccc(Br)cc2cc1C(c1ccccc1)C(O)(CCCCN1CCCN(C)CC1)c1ccc2ccccc2c1 (stereo not drawn) [Compound 34b],–,–,2.1 µg/mL,–,2.1 µg/mL,2.1 µg/mL
"COc1nc2ccc(Br)cc2cc1C(c1ccccc1)C(O)(CCCCN1CC2CC1CN2Cc1ccccc1)CCCc1ccccc1 (single isomer, unassigned) [Compound 15]",11.4 µg/mL,–,–,–,2.6 µg/mL,4.0 µg/mL
"COc1nc2ccc(Br)cc2cc1C(c1ccccc1)C(O)(CCCCN1CCCN(C)CC1)c1ccc2ccccc2c1 (single isomer, unassigned) [Compound 34]",–,2.1 µg/mL,2.1 µg/mL,–,–,–
"COc1nc2ccc(Br)cc2cc1C(c1ccccc1)C(O)(CCCCN1CC2CC1CN2Cc1ccccc1)c1ccc2ccccc2c1 (single isomer, unassigned) [Compound 21]",2.3 µg/mL,–,–,–,0.6 µg/mL,5.8 µg/mL
"COc1nc2ccc(Br)cc2cc1C(c1ccccc1)C(O)(CCCCN(C)C1CCN(C)CC1)c1ccccc1 (single isomer, unassigned) [Compound 5]",7.8 µg/mL,–,–,–,2.0 µg/mL,2.0 µg/mL
"CN1CCCN(CCCCC(O)(c2ccc3ccccc3c2)C(c2ccccc2)c2cc3cc(Br)ccc3[nH]c2=O)CC1 (single isomer, unassigned) [Compound 45]",2.3 µg/mL,2 µg/mL,–,–,–,–
"COc1nc2ccc(Br)cc2cc1C(c1ccccc1)C(O)(CCCCNCCN(C)C)c1ccccc1 (single isomer, unassigned) [Compound 65]",–,1.8 µg/mL,1.8 µg/mL,–,–,–
"COc1nc2ccc(Br)cc2cc1C(c1ccccc1)C(O)(CCCCN1CC2CC1CN2C)c1ccc2ccccc2c1 (single isomer, unassigned) [Compound 56]",–,2.1 µg/mL,2.3 µg/mL,–,–,–
"COc1nc2ccc(Br)cc2cc1C(c1ccccc1)C(O)(CCCCN1CC2CC1CN2C1CCN(C)CC1)c1ccc2ccccc2c1 (single isomer, unassigned) [Compound 63]",–,2.3 µg/mL,2.3 µg/mL,–,–,–
"COc1nc2ccc(Br)cc2cc1C(c1ccccc1)C(O)(CCCCN1CC2CC1CN2C)c1ccc2ccccc2c1 (single isomer, unassigned) [Compound 57]",2.3 µg/mL,–,–,–,–,2.1 µg/mL
"COc1nc2ccc(Br)cc2cc1C(c1ccccc1)C(O)(CCCCN1CC2CC1CN2CCN(C)C)c1ccc2ccccc2c1 (single isomer, unassigned) [Compound 62]",2.2 µg/mL,–,–,–,–,–
COc1nc2ccc(Br)cc2cc1C(c1ccccc1)C(O)(CCCCNC1CC2CCC1C2)c1ccccc1 (stereo not drawn) [Compound 60],–,1.9 µg/mL,1.9 µg/mL,–,–,–
"COc1nc2ccc(Br)cc2cc1C(c1ccccc1)C(O)(CCCCN1CC2CC1CN2CCN(C)C)c1ccc2ccccc2c1 (single isomer, unassigned) [Compound 61]",–,2.2 µg/mL,2.2 µg/mL,–,–,–
"COc1nc2ccc(Br)cc2cc1C(c1ccccc1)C(O)(CCCCN1CC2CC1CN2C1CCN(C)CC1)c1ccc2ccccc2c1 (single isomer, unassigned) [Compound 64]",2.3 µg/mL,–,–,–,–,1.3 µg/mL
"COc1ccc(N2CCN(CCCCC(O)(c3ccc4ccccc4c3)C(c3ccccc3)c3cc4cc(Br)ccc4nc3OC)CC2)cc1 (single isomer, unassigned) [Compound 27]",18.4 µg/mL,–,–,–,–,–
